From patent US12060349B2, “Glucosylceramide synthase inhibitors” (Genzyme Corporation, priority 2012, dated 2024)

Experiments:
C32 human melanoma cells = assay: cell viability in the C32 cell-based assay (Viability, C32 IC50); details: Homo sapiens, C32, C32 cells; concentration causing 50% cell death; values greater than 10 represent a lack of cell death; read-out: Viability, C32 IC50
In short: (§1)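 Cell death was scored within the cell-based GM3 experiment for each line. The viability value is the concentration producing 50% death, and numbers exceeding 10 signify no cytotoxicity.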

B16 mouse melanoma cells = assay: cell viability in the B16 cell-based assay (Viability, B16 IC50); details: Mus musculus, B16, B16 cells; concentration causing 50% cell death; values greater than 10 represent a lack of cell death; read-out: Viability, B16 IC50
In short: as §1

[1] = test system: GM3 expression on the cell surface, B16 mouse melanoma cells; assay: cell based phenotypic assay, cell surface GM3 by antibody mediated immunofluorescence, B16 (GM3 B16 IC50); details: Mus musculus, B16 mouse melanoma cells; 50% inhibition of GM3 expression on the cell surface; read-out: GM3 B16 IC50
In short: (§2)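 Both lines undergo the phenotypic GM3 assay, and viability is recorded from that same cell-based run.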

[2] = target: T1, glucosylceramide synthase (Homo sapiens, UniProt Q16739); assay: microsomal assay measuring conversion of ceramide to glucosylceramide by HPLC (GCS IC50); type: biochemical; details: concentration causing 50% inhibition of glucosylceramide synthase activity
T1 construct: Microsomes were isolated from A375 human melanoma cells; endogenous in cells; host or cells: A375 human melanoma cells (microsomal fraction, 100,000 g pellet)
T1 sequence (Q16739 1-394): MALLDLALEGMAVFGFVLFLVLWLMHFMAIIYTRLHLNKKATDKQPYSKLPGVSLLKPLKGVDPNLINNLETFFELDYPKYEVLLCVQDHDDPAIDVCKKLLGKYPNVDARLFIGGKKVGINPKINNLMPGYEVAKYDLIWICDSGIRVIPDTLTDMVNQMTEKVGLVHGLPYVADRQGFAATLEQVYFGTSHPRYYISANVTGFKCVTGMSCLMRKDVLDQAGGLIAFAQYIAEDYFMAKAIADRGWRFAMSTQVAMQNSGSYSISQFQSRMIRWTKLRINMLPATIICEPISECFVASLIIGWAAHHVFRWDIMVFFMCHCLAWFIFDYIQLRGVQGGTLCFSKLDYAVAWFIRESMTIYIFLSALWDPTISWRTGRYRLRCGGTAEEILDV
In short: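 IC50 is the compound concentration halving glucosylceramide synthase activity. Activity was measured in microsomes, with HPLC quantifying glucosylceramide formed from ceramide.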

[3] = test system: GM3 expression on the cell surface, C32 human melanoma cells; assay: cell based phenotypic assay, cell surface GM3 by antibody mediated immunofluorescence, C32 (GM3 C32 IC50); details: Homo sapiens, C32 human melanoma cells; 50% inhibition of GM3 expression on the cell surface; read-out: GM3 C32 IC50
In short: as §2

`CC1(NC(=O)N2CCN(c3cccc(C4CCCCC4)c3)CC2)CCN2CCC1CC2` (stereo not shown) [Example 29, 4-(3-Cyclohexylphenyl)-N-(4-methyl-1-azabicyclo[3.2.2]nonan-4-yl)piperazine-1-carboxamide] was tested. Which IC50 (C32 human melanoma cells) did it give?
The IC50 was 1000 nM.

And the IC50 (B16 mouse melanoma cells)?
The IC50 was 7810 nM.

What about the IC50 [1] of the same compound?
The IC50 was 2660 nM.

What about the IC50 [2] of the same compound?
The IC50 was 309 nM.

And the IC50 [3]?
The IC50 was 38.2 nM.

What does the source list for `CC1CN(c2cccc(-c3ccccc3)c2)CCN1C(=O)NC1(C)CCN2CCC1CC2` (stereo not shown) [Example 30, 4-([1,1′-Biphenyl]-3-yl)-2-methyl-N-(4-methyl-1-azabicyclo[3.2.2]nonan-4-yl)piperazine-1-carboxamide]?
IC50 (C32 human melanoma cells): 1000 nM; IC50 (B16 mouse melanoma cells): 7640 nM; IC50 [1]: 864 nM; IC50 [2]: 376 nM; IC50 [3]: 63.9 nM

`CC1CN(C(=O)NC2(C)CCN3CCC2CC3)CCN1c1cccc(-c2ccccc2)c1` (stereo not shown) [Example 31, 4-([1,1′-Biphenyl]-3-yl)-3-methyl-N-(4-methyl-1-azabicyclo[3.2.2]nonan-4-yl)piperazine-1-carboxamide] was tested. Which IC50 (C32 human melanoma cells) did it give?
Its IC50 is 1000 nM.

What about the IC50 (B16 mouse melanoma cells) of the same compound?
Its IC50 is 7620 nM.

What about the IC50 [1] of the same compound?
Its IC50 is 70.7 nM.

What about the IC50 [2] of the same compound?
The IC50 was 4.06 nM.

What about the IC50 [3] of the same compound?
The IC50 was 1.51 nM.

Which IC50 (C32 human melanoma cells) does the source give for `CC1(NC(=O)C2CCN(c3cccc(-c4ccc(F)cc4)c3)CC2)CN2CCC1CC2` (stereo not shown) [Example 33, 1-(4′-Fluoro-[1,1′-biphenyl]-3-yl)-N-(3-methylquinuclidin-3-yl)piperidine-4-carboxamide] here?
The IC50 was 1000 nM.

What about the IC50 (B16 mouse melanoma cells) of the same compound?
The IC50 was 6910 nM.

And the IC50 [1]?
Its IC50 is 237 nM.

What about the IC50 [2] of the same compound?
The IC50 was 22.1 nM.

What about the IC50 [3] of the same compound?
Its IC50 is 5.02 nM.

How did the IC50 (C32 human melanoma cells) turn out when `CC1(NC(=O)C2CCN(c3cccc(-c4ccc(F)cc4)c3)CC2)CCN2CCC1CC2` (stereo not shown) [Example 34, 1-(4′-Fluoro-[1,1′-biphenyl]-3-yl)-N-(4-methyl-1-azabicyclo[3.2.2]nonan-4-yl)piperidine-4-carboxamide] was run?
Its IC50 is 316 nM.

What about the IC50 (B16 mouse melanoma cells) of the same compound?
The IC50 was 4720 nM.

And the IC50 [1]?
The IC50 was 79 nM.

And the IC50 [2]?
Its IC50 is 4.78 nM.

And the IC50 [3]?
Its IC50 is 0.872 nM.

How did the IC50 (C32 human melanoma cells) turn out when `CC1(NC(=O)C2CCN(c3cccc(-c4ccccc4)c3)CC2)CN2CCC1CC2` (stereo not shown) [Example 35, 1-([1,1′-Biphenyl]-3-yl)-N-(3-methylquinuclidin-3-yl)piperidine-4-carboxamide] was run?
The IC50 was 1000 nM.

And the IC50 (B16 mouse melanoma cells)?
The IC50 was 7310 nM.

What about the IC50 [1] of the same compound?
The IC50 was 149 nM.

And the IC50 [2]?
Its IC50 is 49.6 nM.

And the IC50 [3]?
Its IC50 is 7.11 nM.

`CC1(NC(=O)C2CCN(c3cccc(-c4ccccc4)c3)CC2)CCN2CCC1CC2` (stereo not shown) [Example 36, 1-([1,1′-Biphenyl]-3-yl)-N-(4-methyl-1-azabicyclo[3.2.2]nonan-4-yl)piperidine-4-carboxamide] was tested. Which IC50 (C32 human melanoma cells) did it give?
Its IC50 is 1000 nM.

And the IC50 (B16 mouse melanoma cells)?
The IC50 was 7570 nM.

And the IC50 [1]?
The IC50 was 136 nM.

What about the IC50 [2] of the same compound?
The IC50 was 10.3 nM.

What about the IC50 [3] of the same compound?
The IC50 was 2.5 nM.

What does the source list for `CC1(NC(=O)C2CCN(c3ccc(-c4ccccc4)cc3)CC2)CN2CCC1CC2` (stereo not shown) [Example 37, 1-([1,1′-Biphenyl]-4-yl)-N-(3-methylquinuclidin-3-yl)piperidine-4-carboxamide]?
IC50 (C32 human melanoma cells): 6900 nM; IC50 (B16 mouse melanoma cells): 7050 nM; IC50 [1]: 1800 nM; IC50 [2]: 1550 nM; IC50 [3]: 131 nM

How did the IC50 (C32 human melanoma cells) turn out when `CC1(NC(=O)C2CCN(c3ccc(-c4ccccc4)cc3)CC2)CCN2CCC1CC2` (stereo not shown) [Example 38, 1-([1,1′-Biphenyl]-4-yl)-N-(4-methyl-1-azabicyclo[3.2.2]nonan-4-yl)piperidine-4-carboxamide] was run?
The IC50 was 6740 nM.

And the IC50 (B16 mouse melanoma cells)?
The IC50 was 6620 nM.

What about the IC50 [1] of the same compound?
The IC50 was 2600 nM.

What about the IC50 [2] of the same compound?
Its IC50 is 1050 nM.

And the IC50 [3]?
Its IC50 is 89.4 nM.

For `CC1(NC(=O)C2CCN(c3cccc(-c4ncccn4)c3)CC2)CCN2CCC1CC2` (stereo not shown) [Example 39, N-(4-Methyl-1-azabicyclo[3.2.2]nonan-4-yl)-1-(3-(pyrimidin-2-yl)phenyl)piperidine-4-carboxamide], which IC50 (C32 human melanoma cells) is on record?
Its IC50 is 3160 nM.

What about the IC50 (B16 mouse melanoma cells) of the same compound?
The IC50 was at least 10000 nM.

And the IC50 [1]?
The IC50 was 7240 nM.

What about the IC50 [2] of the same compound?
Its IC50 is 1800 nM.

What about the IC50 [3] of the same compound?
The IC50 was 126 nM.

For `CC1(NC(=O)C2CCN(c3cccc(-c4cncnc4)c3)CC2)CCN2CCC1CC2` (stereo not shown) [Example 40, N-(4-Methyl-1-azabicyclo[3.2.2]nonan-4-yl)-1-(3-(pyrimidin-5-yl)phenyl)piperidine-4-carboxamide], which IC50 (C32 human melanoma cells) is on record?
The IC50 was 1000 nM.

What about the IC50 (B16 mouse melanoma cells) of the same compound?
The IC50 was 71.3 nM.

What about the IC50 [1] of the same compound?
The IC50 was 5500 nM.

What about the IC50 [2] of the same compound?
The IC50 was 291 nM.

What about the IC50 [3] of the same compound?
The IC50 was 15.2 nM.
